{
  "source": "patent US12133900B2",
  "about": "“Synthesis and composition of amino acid linking groups conjugated to compounds used for the targeted imaging of tumors” (Purdue Research Foundation, priority 2013, dated 2024)",
  "key": {"[1]": {"tested_on": "FR-positive SKOV3 tumor xenografts", "assay": "Imaging and biodistribution, SKOV3 ovarian xenograft", "type": "in vivo, mice", "details": "2 nmol, 2 h", "description": "(§1) Seven-week-old female nu/nu mice were inoculated subcutaneously with KB (1.0×10^6/mouse in RPM11640 medium), IGROV (5.0×10^6/mouse in 50% high concentrated matrigel+RPM11640 medium), SKOV3 (5.0×10^6/mouse in RPM11640 medium), OVCAR3 (5.0×10^6/mouse in RPM11640 medium), MDA-MB231 (1.0×10^6/mouse in RPM11640 medium), M109 (1.0×10^6/mouse in RPM11640 medium) or A549 cells (2.0×10^6/mouse in RPM11640 medium) on the shoulder. Growth of the tumors was measured in perpendicular directions every 2 days using a caliper (body weights were monitored on the same schedule), and the volumes of the tumors were calculated as 0.5×L×W^2 (L=longest axis and W=axis perpendicular to L in millimeters). Once tumors reached approximately 300-400 mm3 in volume, animals (3-5 mice/group) were intravenously injected with the compound of interest in PBS (for dose escalation in KB tumor model: 0.3-90 nmol, for time dependent in KB tumor model: 2 or 10 nmol, and for general whole body imaging and biodistribution for all tumor models: 2 nmol, in 100 μL in PBS per mouse). For whole body imaging and biodistribution studies, animals were euthanized 2 hours after administration of the compound of interest by CO2 asphyxiation. For time dependent studies, animals were imaged under anesthesia using isoflurane. Whole body imaging (intact tumor) experiments was then performed using a Caliper IVIS Lumina II Imaging Station with Living Image 4.0 software (PerkinElmer Inc, MA).\n(§2) Following whole body imaging, animals were dissected and selected tissues (heart, lung, liver, spleen, kidneys, stomach, small intestine, large intestine, muscle, skin, and tumor) were analyzed for fluorescence activity using IVIS imager using same settings as in whole body imaging."}, "[2]": {"tested_on": "FR-positive MDA-MB 231 orthotopic tumors", "assay": "Imaging and biodistribution, MDA-MB 231 orthotopic model", "type": "in vivo, mice", "details": "2 nmol, 2 h", "description": "Breast cancer was developed by implanting breast cancer cells in the […] fat pad of the mouse.\nas §2"}, "[3]": {"tested_on": "FR-positive SKOV3 orthotopic tumor", "assay": "Imaging and biodistribution, SKOV3 ovarian orthotopic model", "type": "in vivo, mice", "details": "2 nmol, 2 h", "description": "(§3) Ovarian cancer was developed through surgical implantation of ovarian cancer cell lines near the ovarian bursa of the mouse. Seven-week-old female athymic nude mice were given 1-5% isoflurane for anesthesia and subcutaneous injection of 5 mg/kg meloxicam preoperatively for analgesia. The mice were placed dorsal side up and washed above the right ovary (just lateral to the epaxial muscles and ˜1.15 cm caudal to the rib cage) with a chlorhexidine scrub to ensure a sterile area for incision. After an insertion was made using scalpel through the skin, the peritoneal lining was lifted to make a small incision using a scissor and widened using a forceps. The ovarian fat pad was carefully lifted out and placed on a wetted gauze pad adjacent to the incision. Ovarian cancer cells (50,000 cells in 5 μL) were injected between the bursa and the ovary using a 30 gage needle. After placing the ovarian fat pad back into the body cavity, the body wall was closed using 3-0 or 4-0 vicryl and the skin was closed using staples.\nas §2"}, "[4]": {"tested_on": "FR-alpha and beta", "details": "cited from earlier work"}, "[5]": {"tested_on": "folate receptor negative A549 tumor xenografts", "assay": "Whole body imaging and biodistribution, folate receptor-negative A549 tumor xenografts", "type": "in vivo, mice", "details": "for specificity for folate receptor (conclusion): FR-negative A549 xenografts", "description": "Seven-week-old female nu/nu mice were inoculated subcutaneously with A549 cells (1.0×10^6/mouse in RPM11640 medium) on the shoulder. Growth of the tumors was measured in perpendicular directions every 2 days using a caliper (body weights were monitored on the same schedule), and the volumes of the tumors were calculated as 0.5×L×W^2 (L=longest axis and W=axis perpendicular to L in millimeters). Once tumors reached between 400 and 500 mm3 in volume, animals (6 mice/group) were intravenously injected with 10 nmol of OTL-0038 in phosphate buffered saline (100 μL). After 2.5 h, animals were sacrificed by CO2 asphyxiation. Whole body imaging (intact tumor) experiments were then performed using a Caliper IVIS Lumina II Imaging Station with Living Image 4.0 software (PerkinElmer Inc, MA). Settings for imaging:—lamp level: medium; excitation: 745 nm; emission: ICG (indocyanine green); epi illumination; binning: 4 (M), FOV=12.5; f-stop=2; acquisition time=1 s.\nFollowing whole body imaging, animals were dissected and selected tissues (heart, lung, liver, spleen, kidneys, stomach, small intestine, large intestine, muscle, skin, tumor) were analyzed for fluorescence activity using IVIS imager as before. Settings for imaging:—lamp level: medium; excitation: 745 nm; emission: ICG; epi illumination; binning: 4 (M), FOV=12.5; f-stop=2; acquisition time=1 s.\nas §1, §2"}, "[6]": {"tested_on": "FR-positive MDA-MB 231 tumor xenografts", "assay": "Imaging and biodistribution, MDA-MB 231 breast xenograft", "type": "in vivo, mice", "description": "as §1, §2"}, "[7]": {"tested_on": "FR-positive IGROV orthotopic ovary tumor", "assay": "Imaging and biodistribution, IGROV ovarian orthotopic model", "type": "in vivo, mice", "details": "2 nmol, 2 h", "description": "as §3, §2"}},
  "note": "“Also recorded” adds a separate entry of the source.",
  "data": [
    {"compound": "CC1(C)C(/C=C/C2=C(Oc3ccc(C[C@H](NC(=O)c4ccc(NCc5cnc6nc(N)[nH]c(=O)c6n5)cc4)C(=O)[O-])cc3)C(=C/C=C3\\N(CCCCS(=O)(=O)[O-])c4ccc(S(=O)(=O)[O-])cc4C3(C)C)/CCC2)=[N+](CCCCS(=O)(=O)[O-])c2ccc(S(=O)(=O)[O-])cc21.[H+].[H+].[H+].[H+]", "note": "[OTL-0038, Pte-Tyr-S0456]", "values": [
      {"measurement": "ex-vivo tissue biodistribution", "setting": "[1]", "result": "highest fluorescence intensities were observed in FR-positive tumors and kidneys"},
      {"measurement": "tumor-to-normal tissue ratios", "setting": "[1]", "result": "excellent tumor-to-normal tissue ratios"},
      {"measurement": "whole body imaging: accumulation", "setting": "[1]", "result": "accumulated mainly in the FR-positive SKOV3 tumor xenografts"},
      {"measurement": "ex-vivo tissue biodistribution", "setting": "[2]", "result": "highest fluorescence intensities were observed in FR-positive tumors and kidneys"},
      {"measurement": "tumor-to-normal tissue ratios", "setting": "[2]", "result": "excellent tumor-to-normal tissue ratios"},
      {"measurement": "whole body imaging: accumulation", "setting": "[2]", "result": "accumulated mainly in the FR-positive MDA-MB 231 orthotopic tumors"},
      {"measurement": "accumulation (tissue biodistribution)", "setting": "[3]", "result": "accumulated mainly in the ovary with FR-positive SKOV3 orthotopic tumor"},
      {"measurement": "tumor-to-normal tissue ratios", "setting": "[3]", "result": "excellent tumor-to-normal tissue ratios"},
      {"measurement": "affinity for FR-alpha versus beta", "setting": "[4]", "result": "binds to FR-alpha and beta with same affinity"},
      {"measurement": "tissue biodistribution", "setting": "[5]; 2 nmol i.v., 2 h", "result": "no fluorescence was observed in FR-negative tumors"},
      {"measurement": "whole body imaging: accumulation", "setting": "[5]; 2 nmol i.v., 2 h", "result": "did not accumulated in the FR-negative tumors"},
      {"measurement": "whole body imaging: accumulation", "setting": "[5]; 10 nmol i.v., 2.5 h", "result": "did not accumulated in the folate receptor negative tumors"},
      {"measurement": "specificity for folate receptor (conclusion)", "setting": "[5]", "result": "highly specific for folate receptor"},
      {"measurement": "specificity for folate receptor (conclusion)", "setting": "[5]; listed as OTL38", "result": "highly specific for FR"},
      {"measurement": "ex-vivo tissue biodistribution", "setting": "[6]; 2 nmol, 2 h", "result": "highest fluorescence intensities were observed in FR-positive tumors and kidneys"},
      {"measurement": "tumor-to-normal tissue ratios", "setting": "[6]; 2 nmol, 2 h", "result": "excellent tumor-to-normal tissue ratios"},
      {"measurement": "whole body imaging: accumulation", "setting": "[6]; 2 nmol, 2 h, listed as OTL38", "result": "accumulated mainly in the FR-positive MDA-MB 231 tumor xenografts; also recorded: mainly accumulated in FR-positive MDA-MB 231 tumor xenografts and kidneys"},
      {"measurement": "accumulation in tumor and kidneys after blocking the FR", "setting": "[6]; 100 fold excess of folic acid prior to 2 nmol, 2 h", "result": "inhibited by the administration of 100 fold excess of folic acid"},
      {"measurement": "specificity for FR (conclusion)", "setting": "[6]; blocking with excess folic acid", "result": "highly specific for FR"},
      {"measurement": "accumulation (tissue biodistribution)", "setting": "[7]", "result": "accumulated mainly in the FR-positive IGROV orthotopic ovary tumor"},
      {"measurement": "tumor-to-normal tissue ratios", "setting": "[7]", "result": "excellent tumor-to-normal tissue ratios"}
    ]}
  ]
}
